From patent US20250312462A1, “PAK1 DEGRADERS AND METHODS OF USE THEREOF” (INSTITUTE FOR CANCER RESEARCH D/B/A THE RESEARCH INSTITUTE …, priority 2022, published 2025)

Experiments:
[1] = target: T1, Aiolos (IKZF3) (Homo sapiens, UniProt Q96SW2+Q9UKT9); test: Global multiplexed mass spectrometry proteomics in MOLT4 cells; format: cell-based; conditions: 1 μM, 5 hours
T1 construct: endogenous in cells; host or cells: MOLT4
Experimental: (§1) MOLT4 cells were treated with DMSO in biological triplicate and 1 μM BJG-05-039 for 5 hours and harvested by centrifugation. Cell lysis was performed by the addition of Urea buffer (8 M Urea, 50 mM NaCl, 50 mM 4-(2-hydroxyethyl)-1-piperazineethanesulfonic acid (EPPS) pH 8.5, Protease and Phosphatase inhibitors) followed by manual homogenization by 20 passes through a 21-gauge (1.25 in. long) needle. Lysate was clarified by centrifugation at 4° C. and protein quantified using bradford (Bio-Rad) assay. 100 μg of protein for each sample was reduced, alkylated and precipitated using methanol/chloroform as described (Donovan, et al. (2018) Elife 7: e38430). The resulting precipitated protein was resuspended in 4 M Urea, 50 mM HEPES pH 7.4, buffer for solubilization, followed by dilution to 1 M urea with the addition of 200 mM EPPS, pH 8. Proteins were digested for 12 hours at room temperature with LysC (1:50 ratio), followed by dilution to 0.5 M urea and a second digestion step was performed by addition of trypsin (1:50 ratio) for 6 hours at 37° C. Anhydrous ACN was added to each peptide sample to a final concentration of 30%, followed by addition of Tandem mass tag (TMT) reagents at a labelling ratio of 1:4 peptide:TMT label. TMT labelling occurred over a 1.5 hour incubation at room temperature followed by quenching with the addition of hydroxylamine to a final concentration of 0.3%. Each of the samples were combined using adjusted volumes and dried down in a speed vacuum followed by desalting with C18 SPE (Sep-Pak, Waters). […]
(§2) Quantification was performed using a MS3-based TMT method as described (Donovan et al. (2020) Cell 183(6):1714-1731). […]
(§3) Proteome Discoverer 2.4 (Thermo Fisher Scientific) was used for .RAW file processing and controlling peptide and protein level false discovery rates, assembling proteins from peptides, and protein quantification from peptides. […]

[2] = target: T2, RNF166 (Homo sapiens, UniProt Q96A37+Q96SW2); test: as above; format: cell-based; conditions: 1 μM, 5 hours
T2 construct: endogenous in cells; host or cells: MOLT4
Experimental: as §1, §2, §3

[3] = target: PAK7 (Homo sapiens, UniProt Q9P286); test: KINOMEscan; conditions: read-out: Percent Control
Experimental: (§4) The kinase engagement assay (KINOMEscan®) was performed by DiscoverX assessing binding abilities toward a set of kinases.

[4] = target: MST3 (Homo sapiens, UniProt Q9Y6E0); test: KINOMEscan; conditions: read-out: Percent Control
Experimental: as §4

[5] = target: AKT3 (Homo sapiens, UniProt Q9Y243); test: KINOMEscan; conditions: read-out: Percent Control
Experimental: as §4

[6] = target: HIPK4 (Homo sapiens, UniProt Q8NE63); test: KINOMEscan; conditions: read-out: Percent Control
Experimental: as §4

[7] = target: MYO3A (Homo sapiens, UniProt Q8NEV4); test: KINOMEscan; conditions: read-out: Percent Control
Experimental: as §4

[8] = target: CSNK2A2 (Homo sapiens, UniProt P19784); test: KINOMEscan; conditions: read-out: Percent Control
Experimental: as §4

[9] = target: NEK7 (Homo sapiens, UniProt Q8TDX7); test: KINOMEscan; conditions: read-out: Percent Control
Experimental: as §4

[10] = target: FES (Homo sapiens, UniProt P07332); test: KINOMEscan; conditions: read-out: Percent Control
Experimental: as §4

[11] = target: RIPK5 (Homo sapiens, UniProt Q6XUX3); test: KINOMEscan; conditions: read-out: Percent Control
Experimental: as §4

[12] = target: CSF1R (Homo sapiens, UniProt P07333); test: KINOMEscan; conditions: read-out: Percent Control
Experimental: as §4

[13] = target: PIK3CA(E542K) (Homo sapiens, UniProt P42336, E542K); test: KINOMEscan; conditions: read-out: Percent Control
Experimental: as §4

[14] = system: FLT3(ITD, F691L); test: KINOMEscan; conditions: 10 μM
Experimental: as §4

[15] = target: ICK (Homo sapiens, UniProt Q9UPZ9); test: KINOMEscan; conditions: read-out: Percent Control
Experimental: as §4

[16] = target: PIP5K2B (Homo sapiens, UniProt P78356); test: KINOMEscan; conditions: read-out: Percent Control
Experimental: as §4

[17] = target: ROCK2 (Homo sapiens, UniProt O75116); test: KINOMEscan; conditions: read-out: Percent Control
Experimental: as §4

[18] = target: TRKC (Homo sapiens, UniProt Q16288); test: KINOMEscan; conditions: read-out: Percent Control
TRKC, sequence (Q16288 32-839): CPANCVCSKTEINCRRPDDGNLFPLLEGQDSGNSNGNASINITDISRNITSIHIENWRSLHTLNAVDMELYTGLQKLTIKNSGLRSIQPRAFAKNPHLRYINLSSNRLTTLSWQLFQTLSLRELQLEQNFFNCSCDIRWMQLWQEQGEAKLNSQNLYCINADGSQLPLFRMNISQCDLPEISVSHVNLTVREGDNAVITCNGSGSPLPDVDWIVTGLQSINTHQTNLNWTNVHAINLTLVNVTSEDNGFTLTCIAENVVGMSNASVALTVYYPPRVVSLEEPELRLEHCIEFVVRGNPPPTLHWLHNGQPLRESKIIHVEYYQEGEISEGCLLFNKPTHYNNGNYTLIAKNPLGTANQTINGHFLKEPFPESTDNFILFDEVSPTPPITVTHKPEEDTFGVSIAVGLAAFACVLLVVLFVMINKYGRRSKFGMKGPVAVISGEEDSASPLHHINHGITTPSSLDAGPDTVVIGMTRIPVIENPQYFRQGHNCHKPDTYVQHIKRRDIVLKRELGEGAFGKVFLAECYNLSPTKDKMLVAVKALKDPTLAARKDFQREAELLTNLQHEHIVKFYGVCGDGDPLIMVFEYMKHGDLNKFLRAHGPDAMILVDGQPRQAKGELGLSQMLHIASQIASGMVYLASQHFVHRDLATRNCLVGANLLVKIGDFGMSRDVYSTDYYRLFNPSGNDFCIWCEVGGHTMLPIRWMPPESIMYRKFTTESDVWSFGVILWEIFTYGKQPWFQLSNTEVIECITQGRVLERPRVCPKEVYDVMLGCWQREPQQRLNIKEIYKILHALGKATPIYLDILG
Experimental: as §4

PIK3CA(E542K), sequence (P42336 whole entry E542K): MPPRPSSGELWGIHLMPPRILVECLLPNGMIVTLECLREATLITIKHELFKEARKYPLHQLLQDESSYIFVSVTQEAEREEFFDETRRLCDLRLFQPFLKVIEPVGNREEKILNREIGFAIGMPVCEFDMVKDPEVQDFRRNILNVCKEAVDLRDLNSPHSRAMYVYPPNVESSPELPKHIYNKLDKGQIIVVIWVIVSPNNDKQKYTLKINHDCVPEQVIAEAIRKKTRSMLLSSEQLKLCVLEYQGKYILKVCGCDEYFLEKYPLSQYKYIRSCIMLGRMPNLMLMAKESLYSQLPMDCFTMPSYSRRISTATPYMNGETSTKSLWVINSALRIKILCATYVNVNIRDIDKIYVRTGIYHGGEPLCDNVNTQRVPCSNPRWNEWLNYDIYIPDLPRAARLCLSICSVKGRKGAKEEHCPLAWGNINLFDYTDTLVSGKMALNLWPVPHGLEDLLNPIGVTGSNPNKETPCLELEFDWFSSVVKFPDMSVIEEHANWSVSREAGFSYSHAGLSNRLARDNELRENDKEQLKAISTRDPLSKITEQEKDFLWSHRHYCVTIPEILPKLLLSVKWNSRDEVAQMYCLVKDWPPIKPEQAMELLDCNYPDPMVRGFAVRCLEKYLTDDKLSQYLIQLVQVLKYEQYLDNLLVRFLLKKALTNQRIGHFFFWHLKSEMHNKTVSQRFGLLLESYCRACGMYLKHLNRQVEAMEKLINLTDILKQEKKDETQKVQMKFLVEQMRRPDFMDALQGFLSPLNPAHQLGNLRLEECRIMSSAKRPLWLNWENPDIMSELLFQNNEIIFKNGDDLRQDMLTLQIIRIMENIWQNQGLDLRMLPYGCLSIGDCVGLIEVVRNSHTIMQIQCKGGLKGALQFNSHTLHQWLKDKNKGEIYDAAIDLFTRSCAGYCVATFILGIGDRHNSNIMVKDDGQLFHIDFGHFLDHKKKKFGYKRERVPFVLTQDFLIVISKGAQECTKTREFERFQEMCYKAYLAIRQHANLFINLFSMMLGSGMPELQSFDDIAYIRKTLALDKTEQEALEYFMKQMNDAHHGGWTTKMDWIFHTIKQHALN
FES, sequence (P07332 whole entry): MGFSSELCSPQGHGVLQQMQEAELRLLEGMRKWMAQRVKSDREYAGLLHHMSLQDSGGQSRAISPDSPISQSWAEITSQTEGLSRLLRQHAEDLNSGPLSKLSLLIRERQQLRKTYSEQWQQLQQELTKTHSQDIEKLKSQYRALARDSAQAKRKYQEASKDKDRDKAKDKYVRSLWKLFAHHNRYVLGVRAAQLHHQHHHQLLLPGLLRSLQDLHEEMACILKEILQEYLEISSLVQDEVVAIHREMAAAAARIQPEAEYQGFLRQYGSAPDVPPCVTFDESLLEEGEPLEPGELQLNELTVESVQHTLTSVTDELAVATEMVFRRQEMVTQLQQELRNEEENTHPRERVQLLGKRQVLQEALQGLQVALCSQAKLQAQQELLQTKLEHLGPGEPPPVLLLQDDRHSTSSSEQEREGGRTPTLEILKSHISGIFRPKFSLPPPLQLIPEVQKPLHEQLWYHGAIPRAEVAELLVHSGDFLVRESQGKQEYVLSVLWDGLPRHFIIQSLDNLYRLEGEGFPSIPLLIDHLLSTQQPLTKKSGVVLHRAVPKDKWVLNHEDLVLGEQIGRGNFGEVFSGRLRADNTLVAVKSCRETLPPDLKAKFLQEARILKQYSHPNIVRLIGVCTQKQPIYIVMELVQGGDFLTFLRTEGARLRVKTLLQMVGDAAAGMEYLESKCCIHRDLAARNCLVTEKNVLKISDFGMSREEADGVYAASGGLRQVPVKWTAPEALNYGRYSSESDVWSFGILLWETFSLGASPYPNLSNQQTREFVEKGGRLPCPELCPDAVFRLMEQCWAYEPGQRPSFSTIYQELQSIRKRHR
MYO3A, sequence (Q8NEV4 whole entry): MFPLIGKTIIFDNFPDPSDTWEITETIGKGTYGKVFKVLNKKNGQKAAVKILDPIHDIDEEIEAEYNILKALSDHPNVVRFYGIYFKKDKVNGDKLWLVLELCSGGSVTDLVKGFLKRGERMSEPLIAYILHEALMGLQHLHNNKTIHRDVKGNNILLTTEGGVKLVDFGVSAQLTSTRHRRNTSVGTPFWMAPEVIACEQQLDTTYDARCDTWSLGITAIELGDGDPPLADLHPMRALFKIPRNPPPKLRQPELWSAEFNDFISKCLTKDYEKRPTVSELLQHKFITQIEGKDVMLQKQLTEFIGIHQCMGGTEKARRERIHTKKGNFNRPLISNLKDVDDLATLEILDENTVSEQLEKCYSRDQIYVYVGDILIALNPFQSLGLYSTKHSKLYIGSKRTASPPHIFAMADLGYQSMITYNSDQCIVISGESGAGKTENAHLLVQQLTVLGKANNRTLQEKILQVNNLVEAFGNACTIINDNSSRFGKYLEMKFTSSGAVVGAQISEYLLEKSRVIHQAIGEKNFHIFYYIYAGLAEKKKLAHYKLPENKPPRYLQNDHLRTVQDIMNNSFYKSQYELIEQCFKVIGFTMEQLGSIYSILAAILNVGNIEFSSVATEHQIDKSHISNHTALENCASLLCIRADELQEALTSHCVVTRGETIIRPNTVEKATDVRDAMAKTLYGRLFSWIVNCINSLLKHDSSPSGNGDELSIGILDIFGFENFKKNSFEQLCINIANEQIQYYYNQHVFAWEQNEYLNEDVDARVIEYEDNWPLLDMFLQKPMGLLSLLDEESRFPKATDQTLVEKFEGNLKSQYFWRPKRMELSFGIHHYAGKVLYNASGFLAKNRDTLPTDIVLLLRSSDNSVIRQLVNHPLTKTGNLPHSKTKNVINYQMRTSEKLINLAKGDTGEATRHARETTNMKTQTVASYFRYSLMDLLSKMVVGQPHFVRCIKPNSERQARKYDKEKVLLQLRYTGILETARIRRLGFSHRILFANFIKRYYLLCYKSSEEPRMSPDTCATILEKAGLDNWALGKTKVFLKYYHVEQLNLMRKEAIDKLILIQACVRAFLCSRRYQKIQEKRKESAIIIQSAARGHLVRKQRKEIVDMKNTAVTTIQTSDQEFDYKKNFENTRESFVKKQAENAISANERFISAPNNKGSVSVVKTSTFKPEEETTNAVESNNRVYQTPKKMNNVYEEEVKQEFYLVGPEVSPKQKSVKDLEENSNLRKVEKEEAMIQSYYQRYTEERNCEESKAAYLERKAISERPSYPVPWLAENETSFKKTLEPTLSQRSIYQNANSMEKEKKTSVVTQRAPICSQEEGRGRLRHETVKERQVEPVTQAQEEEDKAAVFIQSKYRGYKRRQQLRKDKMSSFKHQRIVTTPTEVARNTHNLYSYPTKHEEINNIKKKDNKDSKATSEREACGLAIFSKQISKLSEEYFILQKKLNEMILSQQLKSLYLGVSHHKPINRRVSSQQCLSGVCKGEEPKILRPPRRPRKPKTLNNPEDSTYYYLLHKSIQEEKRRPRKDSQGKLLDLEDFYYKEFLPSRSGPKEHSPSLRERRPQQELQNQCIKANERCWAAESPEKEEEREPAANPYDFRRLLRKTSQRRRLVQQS
PIP5K2B, sequence (P78356 whole entry): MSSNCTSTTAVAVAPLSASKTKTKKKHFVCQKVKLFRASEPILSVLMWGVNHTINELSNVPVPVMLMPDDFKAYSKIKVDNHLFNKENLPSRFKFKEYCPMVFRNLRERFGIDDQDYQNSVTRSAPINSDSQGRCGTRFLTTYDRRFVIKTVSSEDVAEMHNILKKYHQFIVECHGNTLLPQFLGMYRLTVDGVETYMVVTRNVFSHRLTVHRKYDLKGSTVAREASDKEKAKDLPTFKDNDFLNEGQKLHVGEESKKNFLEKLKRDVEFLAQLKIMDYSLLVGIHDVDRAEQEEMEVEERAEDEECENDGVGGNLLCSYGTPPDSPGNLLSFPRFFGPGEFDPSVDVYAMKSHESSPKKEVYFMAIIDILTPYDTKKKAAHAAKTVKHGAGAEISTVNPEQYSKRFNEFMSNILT
NEK7, sequence (Q8TDX7 whole entry): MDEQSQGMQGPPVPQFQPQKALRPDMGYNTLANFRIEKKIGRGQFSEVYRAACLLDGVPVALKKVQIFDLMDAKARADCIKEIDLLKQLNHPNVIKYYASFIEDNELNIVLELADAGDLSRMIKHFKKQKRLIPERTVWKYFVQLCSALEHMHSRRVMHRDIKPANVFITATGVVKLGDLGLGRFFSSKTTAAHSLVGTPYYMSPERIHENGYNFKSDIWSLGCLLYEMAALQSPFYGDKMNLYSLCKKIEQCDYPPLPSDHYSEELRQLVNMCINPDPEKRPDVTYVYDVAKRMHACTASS

## O=C1CCC(N2C(=O)c3cccc(NCCCCCCCCNC(=O)N4CC[C@H](NC5=Nc6cc(F)ccc6N(CC(F)F)c6ccc(Cl)cc65)C4)c3C2=O)C(=O)N1 (stereo partly drawn) [BJG-05-039, (3S)-3-((2-Chloro-5-(2,2-difluoroethyl)-8-fluoro-5H-dibenzo[b,e][1,4]diazepin-11-yl)amino)-N-(8-((2-(2,6-dioxopiperidin-3-yl)-1,3-dioxoisoindolin-4-yl)amino)octyl)pyrrolidine-1-carboxamide]
[1]
  Change in protein abundance: strongly downregulated
[2]
  Change in protein abundance: strongly downregulated
[3]
  remaining binding at 10 µM: 42%
[4]
  remaining binding at 10 µM: 52%
[5]
  remaining binding at 10 µM: 57%
[6]
  remaining binding at 10 µM: 67%
[7]
  remaining binding at 10 µM: 67%
[8]
  remaining binding at 10 µM: 78%
[9]
  remaining binding at 10 µM: 79%
[10]
  remaining binding at 10 µM: 86%
[11]
  remaining binding at 10 µM: 87%
[12]
  remaining binding at 10 µM: 89%
[13]
  remaining binding at 10 µM: 91%
[14]
  Percent Control: 94
[15]
  remaining binding at 10 µM: 99%
[16]
  remaining binding at 10 µM: 100%
[17]
  remaining binding at 10 µM: 100%
[18]
  remaining binding at 10 µM: 100%
